Columns and labels:
[1] = system: non-epithelial glioblastoma brain cancer cell line A-172; assay: cell-growth-on-bead assay, A-172; format: cell-based, human; conditions: Example 5, library of Example 3, 24 to 72 hours
Description: (§1) The ratio of cells to beads is preferably about 10:1, but can range from about 1:1 to 100:1. The suspension of cells 10 and beads 12 is mixed gently for sufficient time to assure contact of beads 12 with suspended cells 10. The culture plates are incubated in a tissue culture incubator at about 4° C. to about 37° C., preferably 37° C., for a period of about 24 to about 72 hours. The suspension of cells 10 and beads 12 may be kept still or mixed, either continuously or intermittently, during the incubation period.
(§2) After the incubation period, beads 12 are observed under a dissecting microscope. […] These beads 14 (referred to as “positive” beads) are removed from the culture plates. A tetrazolium dye that stains live, but not dead, cells can be used to facilitate the identification and removal of the positive beads. If a dye is used, all of the beads are removed after the incubation period and resuspended in fresh medium in new culture plates. The dye is added. The plates are then incubated in a tissue culture incubator at 25° C. to 37° C. for about one to four hours. Live cells 10 convert the dye to a colored metabolite, which results in beads 14 with attached cells appearing colored, allowing them to be easily distinguished from beads 16 without attached cells, which appear colorless, as shown in FIG. 1E. Other dyes that stain live cells can also be used. After positive beads 14 are removed from the plates, attached cells 10 are separated from the beads. This can be done with the addition of a chaotrophic agent, such as 8 M guanidine hydrochloride, or a protease, such as trypsin.
(§3) About 150,000 peptide beads were mixed with approximately one million suspended cells in 15 ml of culture medium and distributed into six 3-cm culture plates. The culture plates were agitated gently at about 100 rpm for about 10 minutes. The culture plates were then incubated in a tissue culture incubator at 37° C. for about 24 hours to about 72 hours.
(§4) A dissecting microscope was used to examine the beads at about 24, 48, and 72 hours. After about 24 to 72 hours, beads with a monolayer of cells were observed.
(§5) At the end of the incubation period, all of the beads were removed and resuspended in fresh medium in a new culture plate. An MTT ([3-(4,5-dimethylthiazol-2-yl)-2,5-diphenyl] tetrazolium bromide) (Sigma, St. Louis, Mo.) dye solution was added to each culture plate to a final concentration of 0.5 mg/ml. The plates were incubated in a tissue culture incubator at 37° C. for about two hours to allow the purple color to develop. Each purple-colored peptide bead was isolated and removed. The attached cells were separated from the beads with 8 M guanidine hydrochloride.
(§6) The amino acid sequence of each isolated peptide bead was determined using an automated Procise 494 protein sequencer (Applied Biosystems, Foster City, Calif.). Several consensus peptide sequences were determined, one of which was cNGRGEQc. This peptide was resynthesized on beads, which were then rescreened with the A549 cells using the assay of the invention.
The method as described in Example 1 was performed, except that a different combinatorial library was used and non-epithelial cancer cells were used. A one-bead-one-compound combinatorial peptide library was prepared as described in Example 3.
The peptide library was screened with the non-epithelial glioblastoma brain cancer cell line A-172 (American Type Culture Collection).
(§7) As described in Example 1, after culturing for about 24 to 72 hours, beads with a monolayer of cells were observed. These positive beads were isolated and the amino acid sequence of each positive bead was determined, as described in Example 1.

[2] = system: epithelial ovarian cancer cell line OVCAR-3; assay: cell-growth-on-bead assay, OVCAR-3; format: cell-based, human; conditions: Example 4, cX2GX4GX6X7c library, peptide concentration on bead surface 20% of Example 3
Description: as §1, §2, §3, §4, §5, §6
(§8) The method as described in Example 1 was performed, except that a different combinatorial library was used and different types of epithelial cancer cells were used. The peptide library of Example 3 was used, except that the concentration of peptides on the surface of each bead was 20% of that used in Example 3, resulting in an increase in screening stringency.
The peptide library was screened with one of the following epithelial ovarian cancer cell lines: CaOV3, SKOV-3, ES-2 and OVCAR-3 (American Type Culture Collection).
as §7

[3] = system: ovarian cancer cell line CaOV3; assay: cell-growth-on-bead assay, CaOV3; format: cell-based, human; conditions: Example 2, cXXXXXXc library, 24 to 72 hours
Description: as §1, §2, §3, §4, §5, §6
The method as described in Example 1 was performed, except that the combinatorial peptide library was screened with a different type of epithelial cancer cells, the ovarian cancer cell line CaOV3 (American Type Culture Collection).
as §7
as §8, with “stringency. […]” for “stringency.”

[4] = system: non-small-cell lung cancer cell line, A549; assay: cell-growth-on-bead assay, A549; format: cell-based, human; conditions: peptide resynthesized on beads, rescreened with A549 cells
Description: The cell-growth-on-bead assay includes the following steps. A one-bead-one-compound combinatorial library is prepared. The library is preferably synthesized using the “split synthesis” approach described in Lam et al., “A new type of synthetic peptide library,” 82-84. The compounds of the library may be small molecules, peptides, or other types of molecules. An example of a suitable library is a peptide library containing cXXXXXXc peptides, where “c” is D-cysteine which provides intramolecular cyclization by disulfide bonding, and “X” is any L, D, unnatural, or modified amino acid. A suitable solid phase support, such as beads or discs made of polystyrene, agarose, acrylamide, glass, plastic, or paramagnetic substances, is used. Polystyrene beads have been found satisfactory. A standard synthetic solid phase peptide synthesis method, such as fluorenylmethyoxycarbonyl (Fmoc) chemistry or t-butyloxycarbonyl (Boc) chemistry, is used. […]
The chemical structure of the compound (i.e. ligand) on each isolated positive bead 14 is then determined. If the combinatorial library used was a peptide library, then the amino acid sequence of the ligand is preferably determined with an automated protein sequencer, such as the Procise 494 (Applied Biosystems, Foster City, Calif.). Alternatively, the peptide can be released via a cleavable linker and the amino acid sequence determined by mass spectroscopy. […]

[5] = system: non-malignant bronchoepithelial cell line, HBE-1; assay: cell-growth-on-bead assay, HBE-1; format: cell-based; conditions: HBE-1 cells
Description: as §1
After the incubation period, beads 12 are observed under a dissecting microscope. […] These beads 14 (referred to as “positive” beads) are removed from the culture plates. A tetrazolium dye that stains live, but not dead, cells can be used to facilitate the identification and removal of the positive beads. If a dye is used, all of the beads are removed after the incubation period and resuspended in fresh medium in new culture plates. The dye is added. The plates are then incubated in a tissue culture incubator at 25° C. to 37° C. for about one to four hours. Live cells 10 convert the dye to a colored metabolite, which results in beads 14 with attached cells appearing colored, allowing them to be easily distinguished from beads 16 without attached cells, which appear colorless, as shown in FIG. 1E. Other dyes that stain live cells can also be used. […]

Substance | identified as ligand (positive bead with monolayer of cells) [1] | identified as ligand (positive bead with monolayer of cells) [2] | further results
c-D-G-L-G-P-HoPhe-c | identified | – | –
c-N-G-Nle-G-(4-Pal)-M-c | identified | – | –
c-Nle-G-Nle-G-Tyr(3-NO2)-L-c | – | identified | –
c-Tyr(3-NO2)-G-F-G-(Pal-3D)-HoSer-c | – | identified | –
c-d-G-(4-Pal)-G-Phe (4-Me)-T-c | identified | – | –
c-d-G-HoCit-G-T-Nva-c | – | identified | –
c-d-G-Nle-G-1-G-c | – | identified | –
c-d-G-Phe(3-C l)-G-T-Y-c | – | identified | –
c-d-G-Tyr(3-NO2)-G-Aic-Q-c | – | identified | –
c-e-G-L-G-Nle-M-c | identified | – | –
c-e-G-N-G-S-(1-Nal)-c | identified | – | –
c-e-G-y-G-Hyp-W-c | identified | – | –
cDGLGDDc | identified | – | identified as ligand (positive bead with monolayer of cells) [3]: identified
cDGWGPNc | identified | – | identified as ligand (positive bead with monolayer of cells) [3]: identified
cNGRGEQc | – | – | beads with this sequence exhibiting cell attachment and growth on their surfaces [4]: Virtually all; peptide beads on which cell growth was observed [5]: 10%
